Data: patent publication US20110313006A1, “PHARMACEUTICAL COMPOSITION OF LEVAMLODIPINE OR PHARMACEUTICALLY ACCEPTABLE SALT THEREOF AND β RECEPTOR BLOCKING AGENT, AND USE THEREOF” (SHIHUIDA PHARMACEUTICALS GROUP (JILIN) LTD, priority 2010, published 2011)

Tested on: SHR rats having spontaneous hypertension
Assay: Antihypertension test in rat (systolic pressure at the tail artery, tail volume method)
Type: in vivo
Conditions: for Blood pressure (systolic pressure at the tail artery), 2 weeks after administration: end of week 2; for Blood pressure (systolic pressure at the tail artery), 3 weeks after administration: end of week 3; for Blood pressure (systolic pressure at the tail artery), 4 weeks after administration: end of week 4; for Blood pressure (systolic pressure at the tail artery), before administration / Anti-hypertensive effect compared with the model group: intragastric; for Blood pressure (systolic pressure at the tail artery), before administration: baseline before administration, mean ± spread; for Anti-hypertensive effect compared with the model group: versus model group (0.9% saline)
From the text: Experiment method: 120 SHR rats having spontaneous hypertension (female:male 1:2, weighted 200-240 g) were equally divided into 12 groups according to the level of hypertension (the specific grouping method is as shown in Table 1), and intragastrically administrated with the medicine. For the blood pressure of the rat, the systolic pressure at the tail artery of the rat when being wake and quiet was indirectly measured by an electronic blood pressure meter through tail volume method respectively before administration, and at the end of 1, 2, 3, and 4 weeks after administration.

[1] = SHR rats, intragastric daily, n = 10, end of week 1, dose per group in Table 1
[2] = SHR rats, intragastric daily, n = 10, dose per group in Table 1
[3] = SHR rats, n = 10, dose per group in Table 1

Molecule	Blood pressure (systolic pressure at the tail artery), 1 week after administration [1]	Blood pressure (systolic pressure at the tail artery), 2 weeks after administration [2]	Blood pressure (systolic pressure at the tail artery), 3 weeks after administration [2]	Blood pressure (systolic pressure at the tail artery), 4 weeks after administration [2]	Blood pressure (systolic pressure at the tail artery), before administration [3]	Anti-hypertensive effect compared with the model group (SHR rats)	Blood pressure (systolic pressure at the tail artery), 1 week after administration (po, 168 h)
OC(CNCC(O)C1CCc2cc(F)ccc2O1)C1CCc2cc(F)ccc2O1 (stereo not shown) [Single medicine group 2, Nebivolol]	27.28 ± 1.48 Kpa	25.94 ± 1.68 KPa	25.57 ± 1.61 KPa	25.29 ± 1.49 KPa	27.42 ± 1.50 KPa	significant anti-hypertensive effect	–
CC(C)NCC(O)COc1ccc(COCCOC(C)C)cc1 (stereo not shown) [Single medicine group 3, Bisoprolol]	27.34 ± 1.41 Kpa	26.14 ± 1.19 KPa	25.82 ± 1.20 KPa	25.58 ± 1.24 KPa	27.52 ± 1.46 KPa	significant anti-hypertensive effect	–
CC(C)NCC(O)COc1ccc(CCOCC2CC2)cc1 (stereo not shown) [Single medicine group 4, Betaxolol]	–	25.99 ± 1.39 KPa	25.62 ± 1.46 KPa	–	27.45 ± 1.07 KPa	significant anti-hypertensive effect	27.20 ± 1.10 Kpa
CCN(CC)C(=O)Nc1ccc(OCC(O)CNC(C)(C)C)c(C(C)=O)c1 (stereo not shown) [Single medicine group 5, Celiprolol]	27.41 ± 1.30 Kpa	–	25.83 ± 1.92 KPa	25.60 ± 2.05 KPa	27.56 ± 1.23 KPa	significant anti-hypertensive effect	–
CC(C)(C)NCC(O)COc1cccc2c1CC(O)C(O)C2 (stereo not shown) [Single medicine group 6, Nadolol]	27.30 ± 1.56 Kpa	26.01 ± 1.42 KPa	25.62 ± 1.47 KPa	–	27.51 ± 1.53 KPa	significant anti-hypertensive effect	–
Levamlodipine benzenesulfonate [Single medicine group 1]	–	–	–	–	–	significant anti-hypertensive effect	–
